Results published in the supplement of paper PMC10307832.

Assays:
Test in all cases: relative viability (nuclei count vs DMSO), 5 days (fraction); higher = more cells survive
[1] = compound: CN[C@@H]1C[C@H]2O[C@@](C)([C@@H]1OC)n1c3ccccc3c3c4c(c5c6ccccc6n2c5c31)C(=O)NC4 [Staurosporine] + O=C(CCCCCCC(=O)Nc1ccccc1)NO [Vorinostat] (partner 1 µM)
Outline: (§1)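 Dosing by pin tool came one day after lung cancer cell lines were seeded in 1536-well plates, using either one drug or a fixed anchor-drug dose plus five library-drug doses (not always all listed) in √10 steps. After 5 days, nuclei were counted on 4× images. Relative viability is treated-well nuclei count divided by vehicle-well nuclei count, and values are medians of duplicate plates.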

[2] = compound: CC1=C(CC(=O)O)c2cc(F)ccc2/C1=C\c1ccc([S+](C)[O-])cc1 [Sulindac] + O=C(CCCCCCC(=O)Nc1ccccc1)NO [Vorinostat] (partner 1 µM)
Outline: as §1

[3] = compound: CC1=C(CC(=O)O)c2cc(F)ccc2/C1=C\c1ccc([S+](C)[O-])cc1 [Sulindac] + O=C(c1cc(Cc2n[nH]c(=O)c3ccccc23)ccc1F)N1CCN(C(=O)C2CC2)CC1 [Olaparib] (partner 8 µM)
Outline: as §1

[4] = compound: CC1=C(CC(=O)O)c2cc(F)ccc2/C1=C\c1ccc([S+](C)[O-])cc1 [Sulindac] + NC(=O)Nc1cc(-c2cccc(F)c2)sc1C(=O)N[C@H]1CCCNC1 [AZD7762] (partner 0.2 µM)
Outline: as §1

In the case of SW 1573, the relative viability ([1]; first compound 0.005 µM) is reported as 0.811, the relative viability ([1]; first compound 0.01581 µM) is reported as 0.391 and the relative viability ([1]; first compound 0.05 µM) is reported as 0.152. For the same cell line, the relative viability ([1]; first compound 0.1581 µM) was 0.0813, the relative viability ([1]; first compound 0.5 µM) was 0.0557 and the relative viability ([2]; first compound 0.08 µM) was 0.777. For the same cell line, the relative viability ([2]; first compound 0.253 µM) was 0.95, the relative viability ([2]; first compound 0.8 µM) was 0.585 and the relative viability ([2]; first compound 2.53 µM) was 0.683. It also gave a relative viability ([2]; first compound 8 µM) of 1.11, a relative viability ([3]; first compound 0.08 µM) of 0.52 and a relative viability ([3]; first compound 0.253 µM) of 0.523. For the same cell line, the relative viability ([3]; first compound 0.8 µM) was 0.528, the relative viability ([3]; first compound 2.53 µM) was 0.478 and the relative viability ([3]; first compound 8 µM) was 0.551.
For HCC-827, the relative viability ([1]; first compound 0.005 µM) was 0.866, the relative viability ([1]; first compound 0.01581 µM) was 0.772 and the relative viability ([1]; first compound 0.05 µM) was 0.384. It also gave a relative viability ([1]; first compound 0.1581 µM) of 0.174, a relative viability ([1]; first compound 0.5 µM) of 0.183 and a relative viability ([2]; first compound 0.08 µM) of 0.908. For the same cell line, the relative viability ([2]; first compound 0.253 µM) was 0.935, the relative viability ([2]; first compound 0.8 µM) was 0.743 and the relative viability ([2]; first compound 2.53 µM) was 0.805. It also gave a relative viability ([2]; first compound 8 µM) of 0.88, a relative viability ([3]; first compound 0.08 µM) of 0.636 and a relative viability ([3]; first compound 0.253 µM) of 0.683. For the same cell line, the relative viability ([3]; first compound 0.8 µM) was 0.573, the relative viability ([3]; first compound 2.53 µM) was 0.659 and the relative viability ([3]; first compound 8 µM) was 0.734. The relative viability ([4]; first compound 0.08 µM) was 0.218, the relative viability ([4]; first compound 0.253 µM) was 0.222 and the relative viability ([4]; first compound 0.8 µM) was 0.198. For the same cell line, the relative viability ([4]; first compound 2.53 µM) was 0.204 and the relative viability ([4]; first compound 8 µM) was 0.244.
For NCI-H727, the relative viability ([1]; first compound 0.005 µM) was 1.36, the relative viability ([1]; first compound 0.01581 µM) was 0.831 and the relative viability ([1]; first compound 0.05 µM) was 0.453. The relative viability ([1]; first compound 0.1581 µM) was 0.36, the relative viability ([1]; first compound 0.5 µM) was 0.322 and the relative viability ([2]; first compound 0.08 µM) was 1.35. It also gave a relative viability ([2]; first compound 0.253 µM) of 1.21, a relative viability ([2]; first compound 0.8 µM) of 0.998 and a relative viability ([2]; first compound 2.53 µM) of 1.18. It also gave a relative viability ([2]; first compound 8 µM) of 1.24, a relative viability ([3]; first compound 0.08 µM) of 0.588 and a relative viability ([3]; first compound 0.253 µM) of 0.519. For the same cell line, the relative viability ([3]; first compound 0.8 µM) was 0.648, the relative viability ([3]; first compound 2.53 µM) was 0.769 and the relative viability ([3]; first compound 8 µM) was 0.707. For the same cell line, the relative viability ([4]; first compound 0.08 µM) was 0.575, the relative viability ([4]; first compound 0.253 µM) was 0.643 and the relative viability ([4]; first compound 0.8 µM) was 0.473. It also gave a relative viability ([4]; first compound 2.53 µM) of 0.582 and a relative viability ([4]; first compound 8 µM) of 0.616.
Work on CAL-12T yielded a relative viability ([1]; first compound 0.005 µM) of 0.415, a relative viability ([1]; first compound 0.01581 µM) of 0.231 and a relative viability ([1]; first compound 0.05 µM) of 0.165. The relative viability ([1]; first compound 0.1581 µM) was 0.129, the relative viability ([1]; first compound 0.5 µM) was 0.112 and the relative viability ([2]; first compound 0.08 µM) was 0.783. For the same cell line, the relative viability ([2]; first compound 0.253 µM) was 0.858, the relative viability ([2]; first compound 0.8 µM) was 0.671 and the relative viability ([2]; first compound 2.53 µM) was 0.821. The relative viability ([2]; first compound 8 µM) was 1.07, the relative viability ([3]; first compound 0.08 µM) was 0.794 and the relative viability ([3]; first compound 0.253 µM) was 0.727. For the same cell line, the relative viability ([3]; first compound 0.8 µM) was 0.649, the relative viability ([3]; first compound 2.53 µM) was 0.664 and the relative viability ([3]; first compound 8 µM) was 0.769. For the same cell line, the relative viability ([4]; first compound 0.08 µM) was 0.586, the relative viability ([4]; first compound 0.253 µM) was 0.717 and the relative viability ([4]; first compound 0.8 µM) was 0.497. The relative viability ([4]; first compound 2.53 µM) was 0.622 and the relative viability ([4]; first compound 8 µM) was 0.708.
Cell Line NCI-H1648 has a relative viability ([1]; first compound 0.005 µM) of 0.517, a relative viability ([1]; first compound 0.01581 µM) of 0.167 and a relative viability ([1]; first compound 0.05 µM) of 0.269. It also gave a relative viability ([1]; first compound 0.1581 µM) of 0.246, a relative viability ([1]; first compound 0.5 µM) of 0.271 and a relative viability ([2]; first compound 0.08 µM) of 0.44. The relative viability ([2]; first compound 0.253 µM) was 0.318, the relative viability ([2]; first compound 2.53 µM) was 0.402 and the relative viability ([2]; first compound 8 µM) was 0.512. For the same cell line, the relative viability ([3]; first compound 0.08 µM) was 1.38, the relative viability ([3]; first compound 0.253 µM) was 0.827 and the relative viability ([3]; first compound 2.53 µM) was 0.997. The relative viability ([3]; first compound 8 µM) was 0.695, the relative viability ([4]; first compound 0.08 µM) was 0.682 and the relative viability ([4]; first compound 0.253 µM) was 0.746. For the same cell line, the relative viability ([4]; first compound 2.53 µM) was 0.7 and the relative viability ([4]; first compound 8 µM) was 0.768.
NCI-H522 was tested, and the relative viability ([1]; first compound 0.005 µM) was 0.856, the relative viability ([1]; first compound 0.01581 µM) was 0.452 and the relative viability ([1]; first compound 0.05 µM) was 0.75. For the same cell line, the relative viability ([1]; first compound 0.1581 µM) was 0.397, the relative viability ([1]; first compound 0.5 µM) was 0.484 and the relative viability ([2]; first compound 0.08 µM) was 0.673. The relative viability ([2]; first compound 0.253 µM) was 0.829, the relative viability ([2]; first compound 0.8 µM) was 0.747 and the relative viability ([2]; first compound 2.53 µM) was 0.906. The relative viability ([2]; first compound 8 µM) was 0.964, the relative viability ([3]; first compound 0.08 µM) was 0.694 and the relative viability ([3]; first compound 0.253 µM) was 0.735. For the same cell line, the relative viability ([3]; first compound 0.8 µM) was 0.558, the relative viability ([3]; first compound 2.53 µM) was 0.633 and the relative viability ([3]; first compound 8 µM) was 0.61. It also gave a relative viability ([4]; first compound 0.08 µM) of 0.753, a relative viability ([4]; first compound 0.253 µM) of 0.921 and a relative viability ([4]; first compound 0.8 µM) of 0.962. For the same cell line, the relative viability ([4]; first compound 2.53 µM) was 0.693 and the relative viability ([4]; first compound 8 µM) was 0.657.
Work on IA-LM yielded a relative viability ([1]; first compound 0.005 µM) of 0.732, a relative viability ([1]; first compound 0.01581 µM) of 0.312 and a relative viability ([1]; first compound 0.05 µM) of 0.0781. For the same cell line, the relative viability ([1]; first compound 0.1581 µM) was 0.0987, the relative viability ([1]; first compound 0.5 µM) was 0.105 and the relative viability ([2]; first compound 0.08 µM) was 1.07. The relative viability ([2]; first compound 0.253 µM) was 1.21, the relative viability ([2]; first compound 2.53 µM) was 0.913 and the relative viability ([2]; first compound 8 µM) was 0.981. It also gave a relative viability ([3]; first compound 0.08 µM) of 0.932, a relative viability ([3]; first compound 0.253 µM) of 0.925 and a relative viability ([3]; first compound 2.53 µM) of 0.953. The relative viability ([3]; first compound 8 µM) was 0.881.
